Laboratory results: patent publication US11066399B2, “Ferroportin inhibitors” (Vifor (International) AG, priority 2015, dated 2021)

How the values were obtained:
[1] = target: T1, ferroportin (Fpn) (Mus musculus, UniProt Q9JHI9); assay: Hepcidin Internalization Assay (J774); type: cell-based; details: average (AVE) of multiple measurements; TMR-hepcidin 25 nM, J774 cells
T1 construct: host or cells: J774 mouse macrophage cell line, Fe(III)-NTA induced
T1 sequence (Q9JHI9 1-570): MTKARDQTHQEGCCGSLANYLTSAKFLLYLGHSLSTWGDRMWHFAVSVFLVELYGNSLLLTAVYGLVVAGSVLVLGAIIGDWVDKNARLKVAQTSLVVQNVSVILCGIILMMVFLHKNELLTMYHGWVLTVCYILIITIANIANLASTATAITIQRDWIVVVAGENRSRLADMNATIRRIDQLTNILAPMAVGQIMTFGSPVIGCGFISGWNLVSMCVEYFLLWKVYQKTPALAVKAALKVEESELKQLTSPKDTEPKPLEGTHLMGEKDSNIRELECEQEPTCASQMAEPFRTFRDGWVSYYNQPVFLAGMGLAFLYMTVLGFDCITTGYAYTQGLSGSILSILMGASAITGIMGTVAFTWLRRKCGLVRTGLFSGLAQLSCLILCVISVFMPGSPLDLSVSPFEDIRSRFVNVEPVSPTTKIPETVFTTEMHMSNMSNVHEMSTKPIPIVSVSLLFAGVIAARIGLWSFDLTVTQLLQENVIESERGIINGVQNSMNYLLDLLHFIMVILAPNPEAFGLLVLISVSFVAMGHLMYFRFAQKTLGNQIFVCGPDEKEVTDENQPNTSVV
From the text: This cellular assay allows quantification of the binding of hepcidin to ferroportin (Fpn) through microscopic detection of internalization of a fluorescently labeled hepcidin into J774 cells. […] Binding of hepcidin to Fpn triggers internalization and degradation of both hepcidin and Fpn. However, the TMR (6-carboxytetramethylrhodamine) fluorophore attached to hepcidin remains associated with the cell after degradation of the hepcidin peptide backbone. Therefore, microscopic detection of cell-associated TMR fluorescence is a measure of hepcidin binding to Fpn and internalization of hepcidin and Fpn. If TMR-hepcidin is prevented from binding to Fpn, cellular TMR fluorescence remains low (Dürrenberger et al, 2013). The effect of small molecular weight Fpn inhibitor compounds in this assay was evaluated in vitro as described below.
After overnight incubation, cells were washed 3 times with pre-warmed DMEM w/o phenol red, 30 μl/well of DMEM w/o phenol red was added after the final wash and 10 μl/well of dilution series of test compounds were added in triplicates. […] Cells were incubated in a total volume of 50 μl at 37° C. with 5% CO2 for 2 hours, then Hoechst 33342 dye was added to a final concentration of 0.5 μg/ml to stain nuclei and further incubated for 10 min. at 37° C. with 5% CO2. Cells were washed 3 times with PBS and fixed in 100 μl of 4% paraformaldehyde in PBS for 15 min. at room temperature. After removal of the paraformaldehyde solution, cells were washed 3 times with PBS leaving 100 μl per well and the plates were sealed with foil plate seal. TMR (530-550 nm excitation/575-625 nm emission/400 ms exposure time) and Hoechst 33342 (360-370 nm excitation/420-460 nm emission/10 ms exposure time) fluorescence images were acquired using a ScanR plate imager (Olympus) with a 20× high NA objective. Four pictures were acquired per well and fluorescence channel covering ca. 1500 cells per well. The acquired image data was analysed with the ScanR image analysis software. Image analysis included detection of nuclei (Hoechst 33342 fluorescence), identification of cell-associated regions, application of a virtual channel and thresholding for rolling-ball-type background reduction, followed by application of the Sum(Mean) algorithm to measure the TMR fluorescence associated with cells as a quantitative measure for internalized TMR-hepcidin. IC50 values were calculated with the Sum(Mean) raw data using “log(inhibitor) vs. response” curve fitting of Prism 5 software (GraphPad Software Inc., version 5.02).

[2] = target: T2, human Fpn-GFP fusion construct (Homo sapiens, UniProt Q9NP59); assay: Inhibition of ferroportin mediated iron export activity in an iron response assay (BLAzer); type: cell-based; details: average (AVE) of multiple measurements; HEK-293 cell line #354
T2 construct: expressed in transfected cells; host or cells: HEK-293 cell line #354 (derivative of HEK-293 Tet-ON Advanced, Clontech)
T2 sequence (Q9NP59 1-571): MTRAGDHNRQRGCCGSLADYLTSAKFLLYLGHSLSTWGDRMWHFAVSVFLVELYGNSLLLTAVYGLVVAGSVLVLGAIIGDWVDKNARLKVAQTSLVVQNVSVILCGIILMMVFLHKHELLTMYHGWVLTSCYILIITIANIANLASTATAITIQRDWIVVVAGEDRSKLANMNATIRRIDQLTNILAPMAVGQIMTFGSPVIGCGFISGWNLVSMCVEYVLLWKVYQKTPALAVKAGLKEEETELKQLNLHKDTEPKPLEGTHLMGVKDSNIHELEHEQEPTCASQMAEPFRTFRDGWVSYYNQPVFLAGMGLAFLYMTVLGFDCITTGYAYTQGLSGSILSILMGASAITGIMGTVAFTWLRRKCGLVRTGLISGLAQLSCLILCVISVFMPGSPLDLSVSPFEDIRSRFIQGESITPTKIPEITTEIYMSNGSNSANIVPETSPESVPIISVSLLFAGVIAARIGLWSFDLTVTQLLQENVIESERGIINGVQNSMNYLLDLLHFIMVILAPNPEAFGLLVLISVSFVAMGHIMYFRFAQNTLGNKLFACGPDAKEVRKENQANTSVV
From the text: Intracellular iron levels are indirectly measured in this assay by monitoring the activity of a beta-lactamase (BLA) reporter gene fused to the human ferritin promoter and the associated iron regulatory element (IRE) contained within the 5′ untranslated region of the ferritin mRNA. Expression of ferroportin (Fpn) in such a cell line leads to iron efflux and lower iron levels as reflected by lower activity of the reporter gene. On the other hand, inhibition of Fpn-mediated iron efflux results in elevated cellular iron levels which is detected as increased reporter gene activity. Small molecular weight Fpn inhibitor compounds were tested for dose-dependent effects in this in vitro iron response assay as described below.
The HEK-293 cell line #354 was generated by stable integration of (i) a human Fpn-GFP fusion construct inserted in a derivative of the doxycycline-inducible pTRE-Tight-BI plasmid (Clontech, Cat. 631068) and (ii) a human ferritin promoter-BLA reporter gene into a derivative of the HEK-293 Tet-ON Advanced cell line (Clontech). […] After overnight incubation, 10 μl/well of dilution series of the test compounds were added in quadruplicates and plates were further incubated overnight at 37° C. with 5% CO2. Cells were washed 3 times with HBSS leaving 25 μl per well. BLA activity was detected by adding 5 μl/well of the GeneBlazer reagent CCF4-AM (Invitrogen, Cat. K1085) to the cells. After incubation of the plates in the dark at 18° C. for 60 min., blue and green fluorescence signals were measured in a Safire2 fluorescence plate reader (Tecan) with excitation at 410 nm and emissions at 458 nm (blue) and 522 nm (green). The ratio of blue/green fluorescence as a measure for BLA activity was calculated and EC50 values were determined with the calculated blue/green fluorescence ratios as described for the hepcidin internalization assay.

Row | Compound | IC50 [1] [nM] | EC50 [2] [nM]
1 | O=C(NCc1ncccc1F)c1cnc(CCNCCc2nc3ccccc3[nH]2)o1 [Example 1] | 12 | 930
2 | O=C(NCc1ncccc1F)c1cnc(C2CN(CCc3nc4ccccc4[nH]3)C2)o1 [Example 2] | 35 | 1030
3 | O=C(NCc1ncccc1F)c1csc(CCNCc2nc3ccccc3[nH]2)n1 [Example 40] | 49 | 1450
4 | O=C(NCc1ncccc1F)c1cnn(CCNCCc2cc3ccccc3[nH]2)c1 [Example 277] | 11 | 170
